Article PMC9354042, “Discovery of BRAF/HDAC Dual Inhibitors Suppressing Proliferation of Human Colorectal Cancer Cells” (Frontiers in Chemistry, 2022)
“Also recorded” adds a separate entry of the source.

Assays:
BRAF^V600E = biological target: T1, BRAF^V600E (Homo sapiens, UniProt P15056, V600E); assay: BRAF V600E enzymatic activity, FRET-based Z'-Lyte kinase assay; format: biochemical
T1 construct: purchased Invitrogen
Protocol: (§1) The experiments were performed according to the instructions of the manufacturer. […] For each assay, 10 μl kinase reactions were added to 384-well plate, mixed thoroughly, and incubated for 1 hour at room temperature. Then, a 5 μl development solution was added to each well and the plate was incubated for another 1 h at room temperature. Then, a 5 μl stop reagent was loaded to stop the reaction. For the control setting, a 5 μl phospho-peptide solution instead of kinase/peptide mixture was used as 100% phosphorylation control. […] The plate was measured on an EnVision Multilabel Reader (Perkin-Elmer). Curve fitting and data presentations were performed using GraphPad Prism, version 5.0. Every experiment was repeated at least two times.

BRAF (wild-type) [1] = biological target: T2, BRAF (wild-type) (Homo sapiens, UniProt P15056); assay: wild-type BRAF enzymatic activity, Z'-Lyte kinase assay; format: biochemical; settings: wild-type BRAF kinase; read-out: BRAF^wt enzymatic IC50
T2 construct: purchased Invitrogen
Protocol: as §1

BRAF (wild-type) [2] = assay: as above; format: biochemical; settings: ratio of enzymatic IC50
Protocol: as §1

HT-29 cells = assay: Antiproliferation CCK-8 assay, HT-29; format: cell-based; settings: Homo sapiens; CCK-8, 72 h, HT-29 (BRAF^V600E); means of three independent experiments; read-out: Cellular IC50 HT-29
Protocol: HCT116 and HT-29 cells were obtained from the Shanghai Cell Bank (Type Culture Collection (TCC), Chinese Academy of Sciences) and cultured in DMEM (10–013-CVR, corning) supplemented with 10% fetal bovine serum (04-001-1A, BI), 1% penicillin/streptomycin (03-031-1B, BI).
The cells in the logarithmic phase were placed in 96-well plates (∼3000 cells/well) in a complete medium. After incubation overnight, the cells were exposed to the corresponding compounds or vehicle control at the indicated concentration for a further 72 h. Cell proliferation was evaluated using Cell Counting Kit 8 (CCK8, CK04, Dojindo Laboratories, Kumamoto, Japan). OD450 and OD650 were determined using a microplate reader. Absorbance rate (A) for each well was calculated as OD450 −OD650. […] Each IC50 value is expressed as mean ± SD. As is the absorbance rate of the test compound well, Ac is the absorbance rate of the well without either the cell or test compound, and Ab is the absorbance rate of the well with the cell and vehicle control.

HDAC2 = biological target: T3, HDAC2 (Homo sapiens, UniProt Q92769); assay: HDAC2 fluorescent-based enzymatic activity assay; format: biochemical; settings: Table 3 isoform panel; read-out: Enzyme inhibition HDAC2 (Class I)
T3 construct: purchased BPS Bioscience
Protocol: (§2) The purified recombinant Human HDACs and their corresponding substrates were purchased from BPS Bioscience (BPS Bioscience Inc., United States). The assays were carried out in a 384-well format using the BPS fluorescent–based HDAC activity assay according to the manufacturer’s protocol. In brief, […] of the HDAC reaction mixture was composed of HDAC assay buffer, […] BSA, serial diluted test compounds, appropriate concentration of HDACs, and […] fluorogenic substrate, the mixture was incubated at 37°C for 60 min, and then stopped by the addition of developer containing trypsin and TSA. After 20 min of incubation, the fluorescence was detected at the excitation wavelength of 360 nm and the emission wavelength of 460 nm using the EnVision Multilabel Reader (PerkinElmer Inc., United States). The analytical software, GraphPad Prism 5.0 (GraphPad Software, Inc., United States) was used to generate IC50 value via non-linear regression analysis.

HDAC3 = biological target: T4, HDAC3 (Homo sapiens, UniProt O15379); assay: HDAC3 fluorescent-based enzymatic activity assay; format: biochemical; settings: Table 3 isoform panel; read-out: Enzyme inhibition HDAC3 (Class I)
T4 construct: purchased BPS Bioscience
Protocol: as §2

HDAC8 = biological target: T5, HDAC8 (Homo sapiens, UniProt Q9BY41); assay: HDAC8 fluorescent-based enzymatic activity assay; format: biochemical; settings: Table 3 isoform panel; read-out: Enzyme inhibition HDAC8 (Class I)
T5 construct: purchased BPS Bioscience
T5 sequence (Q9BY41 1-377): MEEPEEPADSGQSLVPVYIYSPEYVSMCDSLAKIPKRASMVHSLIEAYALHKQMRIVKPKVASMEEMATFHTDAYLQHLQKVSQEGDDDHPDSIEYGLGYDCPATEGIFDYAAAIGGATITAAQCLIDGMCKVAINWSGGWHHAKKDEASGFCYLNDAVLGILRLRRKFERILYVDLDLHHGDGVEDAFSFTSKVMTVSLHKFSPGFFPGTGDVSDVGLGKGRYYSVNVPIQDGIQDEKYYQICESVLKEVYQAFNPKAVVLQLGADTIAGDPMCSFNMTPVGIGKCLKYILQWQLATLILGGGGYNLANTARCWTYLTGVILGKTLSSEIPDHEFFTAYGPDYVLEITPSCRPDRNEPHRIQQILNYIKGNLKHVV
Protocol: as §2

HDAC4 = biological target: T6, HDAC4 (Homo sapiens, UniProt P56524); assay: HDAC4 fluorescent-based enzymatic activity assay; format: biochemical; settings: Table 3 isoform panel; read-out: Enzyme inhibition HDAC4 (Class IIA)
T6 construct: purchased BPS Bioscience
Protocol: as §2

HDAC5 = biological target: T7, HDAC5 (Homo sapiens, UniProt Q9UQL6); assay: HDAC5 fluorescent-based enzymatic activity assay; format: biochemical; settings: Table 3 isoform panel; read-out: Enzyme inhibition HDAC5 (Class IIA)
T7 construct: purchased BPS Bioscience
Protocol: as §2

[3] = system: Ac-histone H3, Ac-α-tubulin, p-ERK in HCT116 cells; assay: Western blot analysis of HDAC and RAF pathway in HCT116 cells; format: cell-based, human
Protocol: FIGURE 3 Characterization of dual inhibition of HDAC and RAF pathway. Western blot analysis of 14b in HCT116 cells (A) and in HT-29 cells (B). Cells were treated with 0 μM, 0.12 μM, 0.37 μM, 1.1 μM, 3.3 μM, and 10 μM of drugs and incubated for 6 h. The cell lysis was subjected to Western blot analysis.
The cells were treated with various concentrations of 14b for 6 h. Then, the cells were lysed using 1×SDS sample lysis buffer (CST recommended) with protease and phosphatase inhibitors. Cell lysates were loaded and electrophoresed onto 8–12% SDS-PAGE gel, and then the separated proteins were transferred to a PVDF film. The film was blocked with 5% BSA (Sigma-Aldrich, St. Louis, MO, United States) in a TBS solution containing 0.5% Tween-20 for 4 h at room temperature, then incubated with the corresponding primary antibody (1:1000–1:200) overnight at 4°C. After washing with TBST, HRP-conjugated secondary antibody was incubated for 2 h. The protein signals were visualized by the ECL Western Blotting Detection Kit (Thermo Scientific, Grand Island, NY, United States), and detected with Amersham Imager 600 system (GE, Boston, MA, United States).

P-ERK in B16 cells = assay: Immunoblot analysis of P-ERK in B16 cells; format: cell-based; settings: B16 mouse melanoma cells with wild type BRAF, 24 h
Source text: Supplementary Figure 2. 14b inhibit the phosphorylation of ERK in B16 cells.

T1 sequence (P15056 whole entry V600E): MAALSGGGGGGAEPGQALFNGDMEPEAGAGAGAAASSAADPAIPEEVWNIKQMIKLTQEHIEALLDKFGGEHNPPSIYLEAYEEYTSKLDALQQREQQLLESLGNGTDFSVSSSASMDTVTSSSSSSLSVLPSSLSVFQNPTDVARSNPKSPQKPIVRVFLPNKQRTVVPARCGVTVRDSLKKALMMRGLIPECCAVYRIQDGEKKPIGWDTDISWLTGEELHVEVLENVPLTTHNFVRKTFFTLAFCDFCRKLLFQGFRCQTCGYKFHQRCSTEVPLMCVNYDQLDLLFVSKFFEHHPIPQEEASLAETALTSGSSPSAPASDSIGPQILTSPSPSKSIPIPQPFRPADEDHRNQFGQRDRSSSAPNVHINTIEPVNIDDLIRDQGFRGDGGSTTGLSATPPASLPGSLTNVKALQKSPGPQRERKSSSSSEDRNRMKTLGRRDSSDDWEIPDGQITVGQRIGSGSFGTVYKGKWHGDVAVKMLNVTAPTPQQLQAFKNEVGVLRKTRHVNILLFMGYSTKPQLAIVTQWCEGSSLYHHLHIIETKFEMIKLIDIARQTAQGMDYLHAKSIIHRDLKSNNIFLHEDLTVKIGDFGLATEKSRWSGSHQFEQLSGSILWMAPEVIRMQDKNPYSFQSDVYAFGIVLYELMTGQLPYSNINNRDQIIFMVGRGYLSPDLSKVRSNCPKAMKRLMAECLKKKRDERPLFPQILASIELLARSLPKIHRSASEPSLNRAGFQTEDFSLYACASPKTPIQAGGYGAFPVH
T6 sequence (P56524 whole entry, canonical isoform): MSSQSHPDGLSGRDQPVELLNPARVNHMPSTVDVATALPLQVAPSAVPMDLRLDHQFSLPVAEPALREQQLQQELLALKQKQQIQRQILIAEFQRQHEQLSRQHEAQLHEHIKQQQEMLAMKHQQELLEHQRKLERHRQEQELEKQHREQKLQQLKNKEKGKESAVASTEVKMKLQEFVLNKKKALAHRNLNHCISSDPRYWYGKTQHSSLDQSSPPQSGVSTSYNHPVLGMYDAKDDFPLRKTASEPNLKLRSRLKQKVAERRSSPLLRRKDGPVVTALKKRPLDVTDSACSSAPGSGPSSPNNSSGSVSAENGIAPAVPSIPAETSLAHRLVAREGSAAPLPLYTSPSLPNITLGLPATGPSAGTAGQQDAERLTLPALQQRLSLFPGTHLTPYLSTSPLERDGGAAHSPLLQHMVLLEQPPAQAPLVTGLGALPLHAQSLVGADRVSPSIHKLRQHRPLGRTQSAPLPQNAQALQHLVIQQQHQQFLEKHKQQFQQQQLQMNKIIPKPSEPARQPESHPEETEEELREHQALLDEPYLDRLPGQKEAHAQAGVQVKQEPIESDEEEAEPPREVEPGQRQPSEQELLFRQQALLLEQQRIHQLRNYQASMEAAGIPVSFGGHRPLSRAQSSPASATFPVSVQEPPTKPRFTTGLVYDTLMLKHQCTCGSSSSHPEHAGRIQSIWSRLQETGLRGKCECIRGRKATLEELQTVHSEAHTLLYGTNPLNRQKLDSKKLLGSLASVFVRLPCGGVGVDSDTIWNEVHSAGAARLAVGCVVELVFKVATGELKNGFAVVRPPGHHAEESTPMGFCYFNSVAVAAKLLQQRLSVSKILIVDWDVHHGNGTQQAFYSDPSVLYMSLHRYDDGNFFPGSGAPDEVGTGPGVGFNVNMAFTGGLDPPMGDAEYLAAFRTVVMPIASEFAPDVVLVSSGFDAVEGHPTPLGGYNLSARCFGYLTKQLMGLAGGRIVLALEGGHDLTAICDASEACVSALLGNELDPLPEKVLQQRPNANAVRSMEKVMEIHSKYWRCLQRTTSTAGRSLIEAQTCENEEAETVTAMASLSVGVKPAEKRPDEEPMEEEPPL
T4 sequence (O15379 whole entry, canonical isoform): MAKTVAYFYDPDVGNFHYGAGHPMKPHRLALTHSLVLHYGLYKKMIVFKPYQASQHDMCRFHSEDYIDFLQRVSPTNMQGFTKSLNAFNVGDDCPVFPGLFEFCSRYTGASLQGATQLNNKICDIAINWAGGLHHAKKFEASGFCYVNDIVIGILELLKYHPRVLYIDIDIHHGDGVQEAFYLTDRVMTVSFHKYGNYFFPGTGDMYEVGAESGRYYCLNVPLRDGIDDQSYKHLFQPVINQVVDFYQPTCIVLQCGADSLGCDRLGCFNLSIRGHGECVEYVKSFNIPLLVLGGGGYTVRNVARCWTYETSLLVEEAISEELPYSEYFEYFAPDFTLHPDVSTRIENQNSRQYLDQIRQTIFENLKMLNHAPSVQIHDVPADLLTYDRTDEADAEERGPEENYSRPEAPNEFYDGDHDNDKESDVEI
T4 sequence (Q9Y618 395-489 partner limits assumed): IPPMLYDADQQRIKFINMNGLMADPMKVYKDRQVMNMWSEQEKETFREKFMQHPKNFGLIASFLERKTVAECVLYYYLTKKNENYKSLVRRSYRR
T7 sequence (Q9UQL6 whole entry, canonical isoform): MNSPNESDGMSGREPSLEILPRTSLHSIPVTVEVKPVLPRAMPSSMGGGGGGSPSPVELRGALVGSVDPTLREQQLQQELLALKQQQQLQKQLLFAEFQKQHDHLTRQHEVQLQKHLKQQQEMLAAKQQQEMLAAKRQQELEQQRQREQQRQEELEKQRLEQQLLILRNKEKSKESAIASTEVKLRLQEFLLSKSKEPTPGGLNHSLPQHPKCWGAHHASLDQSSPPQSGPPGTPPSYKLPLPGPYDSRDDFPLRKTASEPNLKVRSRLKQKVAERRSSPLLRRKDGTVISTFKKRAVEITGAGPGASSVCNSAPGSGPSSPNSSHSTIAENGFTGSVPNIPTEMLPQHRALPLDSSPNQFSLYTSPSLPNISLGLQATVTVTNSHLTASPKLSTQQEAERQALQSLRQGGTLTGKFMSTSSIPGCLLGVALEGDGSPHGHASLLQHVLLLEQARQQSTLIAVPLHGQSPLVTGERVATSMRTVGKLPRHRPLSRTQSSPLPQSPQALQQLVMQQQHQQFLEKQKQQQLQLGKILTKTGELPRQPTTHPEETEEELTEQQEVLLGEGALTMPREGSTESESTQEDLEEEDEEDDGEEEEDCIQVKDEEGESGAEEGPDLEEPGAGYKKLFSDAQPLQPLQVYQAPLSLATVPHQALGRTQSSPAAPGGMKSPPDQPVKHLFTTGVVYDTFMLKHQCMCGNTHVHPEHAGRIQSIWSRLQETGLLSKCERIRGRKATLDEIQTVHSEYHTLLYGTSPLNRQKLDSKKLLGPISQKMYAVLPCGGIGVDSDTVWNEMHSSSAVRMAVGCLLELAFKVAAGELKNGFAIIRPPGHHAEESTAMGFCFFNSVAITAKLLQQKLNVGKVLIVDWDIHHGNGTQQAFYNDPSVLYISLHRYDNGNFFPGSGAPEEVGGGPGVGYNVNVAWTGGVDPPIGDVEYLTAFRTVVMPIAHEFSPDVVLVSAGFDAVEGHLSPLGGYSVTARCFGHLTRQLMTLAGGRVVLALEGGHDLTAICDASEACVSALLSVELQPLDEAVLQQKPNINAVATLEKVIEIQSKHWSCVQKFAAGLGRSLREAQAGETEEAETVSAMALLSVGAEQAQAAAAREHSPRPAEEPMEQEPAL
T2 sequence (P15056 whole entry): as the sequence (P15056 whole entry V600E) above, with E600V counted along it
T3 sequence (Q92769 whole entry, canonical isoform): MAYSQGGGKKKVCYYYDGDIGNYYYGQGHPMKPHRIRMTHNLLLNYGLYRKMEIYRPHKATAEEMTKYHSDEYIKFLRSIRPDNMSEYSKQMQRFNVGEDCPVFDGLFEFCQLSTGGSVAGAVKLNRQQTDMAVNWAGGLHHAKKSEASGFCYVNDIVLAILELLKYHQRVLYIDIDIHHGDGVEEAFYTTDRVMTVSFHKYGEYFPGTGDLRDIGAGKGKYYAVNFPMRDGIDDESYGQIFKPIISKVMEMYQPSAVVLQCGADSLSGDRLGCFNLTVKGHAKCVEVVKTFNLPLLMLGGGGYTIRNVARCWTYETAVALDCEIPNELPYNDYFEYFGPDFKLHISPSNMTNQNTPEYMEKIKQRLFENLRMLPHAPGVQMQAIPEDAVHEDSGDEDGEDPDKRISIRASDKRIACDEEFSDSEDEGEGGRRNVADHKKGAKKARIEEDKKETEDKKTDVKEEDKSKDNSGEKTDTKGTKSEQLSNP

IC50 (BRAF^V600E): 0.00171 µM | IC50 (BRAF (wild-type) [1]): 0.00407 µM | selectivity of BRAF^V600E over wild-type BRAF (BRAF (wild-type) [2]): about 2 fold | IC50 (HT-29 cells): 0.31 µM | IC50 (HDAC2): 0.747 µM | IC50 (HDAC3): 0.913 µM | IC50 (HDAC8): 3 µM | IC50 (HDAC4): > 100 µM | IC50 (HDAC5): 52.9 µM
SMILES: CC(C)(C)c1nc(-c2cccc(NS(=O)(=O)c3c(F)cccc3F)c2F)c(-c2ccnc(NCCCCCCC(=O)NO)n2)s1 [14b, 7-{[4-(2-(Tert-Butyl)-4-(3-((2,6-Difluorophenyl)Sulfonamido)-2-Fluorophenyl)Thiazol-5-yl)Pyrimidin-2-yl]Amino}-N-Hydroxyheptanamide]
expression of BRAF ([3]; HCT116 cells): did not affect the expression of BRAF itself | phosphorylation of ERK (p-ERK) ([3]; HCT116 cells (wild-type BRAF, K-RAS G13D), 0.12-10 μM, 6 h): significantly inhibited phosphorylation of ERK | acetylated histone H3 (Ac-histone H3) ([3]; HCT116 cells, 0.12-10 μM, 6 h): upregulated | acetylated α-tubulin (Ac-α-tubulin) ([3]; HCT116 cells, 0.12-10 μM, 6 h): upregulated | phosphorylation of ERK (P-ERK) (P-ERK in B16 cells): downregulate P-ERK; also recorded: p-ERK inhibition was observed
